According to patent publication US20260015350A1, “AZAQUINAZOLINE PAN-KRAS INHIBITORS” (Mirati Therapeutics, Inc., priority 2022, published 2026):

How the values were obtained:
[1] = test system: KRas-mediated phosphorylation of ERK in MKN1 cells; assay: Inhibition of KRas-mediated phosphorylation of ERK (Cisbio HTRF pERK), MKN1 cells; type: cell-based; conditions: Homo sapiens, MKN-1
Method: (§1) Inhibition of KRas Phosphorylation of ERK (HTRF) by Exemplary Compounds of Formula (I)
(§2) Cisbio HTRF Advanced PERK Assay Catalog #64AERPEH
(§3) Day 1: Seed 6,000 cells/well-25 μl/well in 384-well white solid bottom plate; RPM1_10% FBS. Incubate overnight at 37° C./5% CO2.
(§4) Incubate for 4 hours at room temperature covered.
(§5) Read HTRF using ClarioStar

[2] = test system: KRas-mediated phosphorylation of ERK in H727 cells; assay: Inhibition of KRas-mediated phosphorylation of ERK (Cisbio HTRF pERK), H727 cells; type: cell-based; conditions: Homo sapiens; for IC50: NCI-H727, H727 cells, HTRF pERK; for inhibition at 0.1 µM: NCI-H727, 3 h, single point, 100 nM compound, 3 hrs, H727 cells
Outline: (§6)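 HTRF readout of phospho-ERK in cell lysates after 3 hrs of compound exposure. Dosing: 10 uM top, 3-fold steps, 10 doses, final DMSO 0.8%. Min control: 0.2 uM Trametinib. Lysis ran 40 mins at 4° C, and antibody detection 2 hrs at room temperature.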

[3] = target: T1, KRas^G12V (Homo sapiens, UniProt P01116, G12V); assay: KRas binding assay (TR-FRET tracer displacement), KRas G12V
T1 construct: Biotinylated KRas (corresponding to amino acids 1-169, produced at Accelegan Inc.); biotin (biotinylated); purchased Accelegan Inc
T1 sequence (P01116 1-169 isoform P01116-2 G12V): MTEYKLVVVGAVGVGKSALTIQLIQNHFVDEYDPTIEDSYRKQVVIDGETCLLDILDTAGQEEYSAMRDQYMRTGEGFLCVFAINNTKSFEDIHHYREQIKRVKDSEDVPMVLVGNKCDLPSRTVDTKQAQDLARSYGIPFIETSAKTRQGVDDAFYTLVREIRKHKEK

[4] = test system: KRas-mediated phosphorylation of ERK in PSN1 cells; assay: Inhibition of KRas-mediated phosphorylation of ERK (Cisbio HTRF pERK), PSN1 cells; type: cell-based; conditions: Homo sapiens
Method: as §1, §2, §3, §4, §5

[5] = test system: KRas-mediated phosphorylation of ERK in AsPC-1 cells; assay: Inhibition of KRas-mediated phosphorylation of ERK (Cisbio HTRF pERK), AsPC-1 cells; type: cell-based; conditions: Homo sapiens; for IC50: ASPC1, AsPC-1 cells, HTRF pERK; for inhibition at 0.1 µM: ASPC1, 3 h, single point, 100 nM compound, 3 hrs, AsPC-1 cells
Outline: as §6

[6] = target: T2, KRas^G12R (Homo sapiens, UniProt P01116, G12R); assay: KRas binding assay (TR-FRET tracer displacement), KRas G12R
T2 construct: Biotinylated KRas (corresponding to amino acids 1-169, produced at Accelegan Inc.); biotin (biotinylated); purchased Accelegan Inc
T2 sequence (P01116 1-169 isoform P01116-2 G12R): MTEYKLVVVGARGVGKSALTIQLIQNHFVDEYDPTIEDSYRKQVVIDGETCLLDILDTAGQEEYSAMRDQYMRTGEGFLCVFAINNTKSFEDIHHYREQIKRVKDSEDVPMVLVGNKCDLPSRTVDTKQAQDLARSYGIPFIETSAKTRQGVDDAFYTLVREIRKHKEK

[7] = target: T3, KRas^G12D (Homo sapiens, UniProt P01116, G12D); assay: KRas binding assay (TR-FRET tracer displacement), KRas G12D
T3 construct: Biotinylated KRas (corresponding to amino acids 1-169, produced at Accelegan Inc.); biotin (biotinylated); purchased Accelegan Inc
T3 sequence (P01116 1-169 isoform P01116-2 G12D): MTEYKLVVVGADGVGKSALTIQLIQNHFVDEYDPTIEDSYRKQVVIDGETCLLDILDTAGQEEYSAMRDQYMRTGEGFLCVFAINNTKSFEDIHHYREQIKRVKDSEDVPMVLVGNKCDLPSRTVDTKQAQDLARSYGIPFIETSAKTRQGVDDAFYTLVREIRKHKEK

[8] = test system: KRas-mediated phosphorylation of ERK in A549 cells; assay: Inhibition of KRas-mediated phosphorylation of ERK (Cisbio HTRF pERK), A549 cells; type: cell-based; conditions: Homo sapiens; for inhibition at 0.1 µM: A549, 3 h, single point, 100 nM compound, 3 hrs; for IC50: HTRF pERK
Outline: (§7)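 Following a 3-hr exposure of cells to serially diluted compound (from 10 uM, 3-fold, 10 doses), cold lysis for 40 mins preceded a 2-hr room-temperature HTRF immunoassay for phosphorylated ERK.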

[9] = test system: KRas-mediated phosphorylation of ERK in H358 cells; assay: Inhibition of KRas-mediated phosphorylation of ERK (Cisbio HTRF pERK), H358 cells; type: cell-based; conditions: Homo sapiens; for inhibition at 0.1 µM: NCI-H358, 3 h, single point, 100 nM compound, 3 hrs; for IC50: NCI-H358, HTRF pERK
Outline: as §6

[10] = test system: KRas-mediated phosphorylation of ERK in HCT116 cells; assay: Inhibition of KRas-mediated phosphorylation of ERK (Cisbio HTRF pERK), HCT116 cells; type: cell-based; conditions: Homo sapiens; for inhibition at 0.1 µM: HCT-116, 3 h, single point, 100 nM compound, 3 hrs; for IC50: HCT-116, HTRF pERK
Outline: as §7

[11] = test system: KRas-mediated phosphorylation of ERK in H460 cells; assay: Inhibition of KRas-mediated phosphorylation of ERK (Cisbio HTRF pERK), H460 cells; type: cell-based; conditions: Homo sapiens; for inhibition at 0.1 µM: NCI-H460, 3 h, single point, 100 nM compound, 3 hrs; for IC50: NCI-H460, HTRF pERK
Outline: as §6

SMILES: CCc1c(F)ccc2cc(O)cc(-c3ncc4c(N5C[C@H]6C[C@@H](C5)[C@H](O)[C@H]6O)nc(OC[C@@]56CCCN5C[C@H](F)C6)nc4c3F)c12 (single isomer, unassigned) [Example 569]
- IC50 [1]: 69 nM
- IC50 [2]: 444 nM
- IC50 [3]: < 2 nM
- IC50 [4]: > 10000 nM
- IC50 [5]: 5110 nM
- IC50 [6]: < 2 nM
- IC50 [7]: 5 nM

SMILES: CCc1c(F)ccc2cc(O)cc(-c3ncc4c(N5CCC[C@@]6(CC[S@+]([O-])C6)C5)nc(OC[C@@]56CCCN5C[C@H](F)C6)nc4c3F)c12 (single isomer, unassigned) [Example 624]
- IC50 [1]: 834 nM
- IC50 [2]: 3990 nM
- IC50 [3]: 17 nM
- IC50 [4]: > 10000 nM
- IC50 [5]: 4030 nM
- IC50 [6]: 41 nM
- IC50 [7]: 19 nM

SMILES: CCc1c(F)ccc2cc(O)cc(-c3ncc4c(N5CCC[C@]6(CC[S@+]([O-])C6)C5)nc(OC[C@@]56CCCN5C[C@H](F)C6)nc4c3F)c12 (single isomer, unassigned) [Example 625]
- IC50 [1]: 195 nM
- IC50 [2]: 2850 nM
- IC50 [3]: 10 nM
- IC50 [4]: > 10000 nM
- IC50 [5]: 4740 nM
- IC50 [6]: 17 nM
- IC50 [7]: 21 nM

SMILES: CCc1c(F)ccc2c(F)c(O)cc(-c3ncc4c(N5C[C@@H]6C[C@H](C5)[C@H](O)C6)nc(OC[C@@]56CCCN5C[C@H](F)C6)nc4c3F)c12 [Example 778, (1R,5R,6R)-3-(7-(8-ethyl-4,7-difluoro-3-hydroxynaphthalen-1-yl)-8-fluoro-2-(((2R,7aS)-2-fluorohexahydro-1H-pyrrolizin-7a-yl)methoxy)pyrido[4,3-d]pyrimidin-4-yl)-3-azabicyclo[3.2.1]octan-6-ol]
- inhibition at 0.1 µM [2]: 36%
- IC50 [2]: 45 nM
- IC50 [3]: < 2 nM
- inhibition at 0.1 µM [8]: 69%
- inhibition at 0.1 µM [5]: 16%
- IC50 [5]: 84 nM
- IC50 [6]: 4 nM
- inhibition at 0.1 µM [9]: 64%
- IC50 [7]: 6 nM
- inhibition at 0.1 µM [10]: 49%
- inhibition at 0.1 µM [11]: 74%

SMILES: CCc1c(F)ccc2cc(O)cc(-c3ncc4c(N5Cc6n[nH]c(CO)c6C5)nc(OC[C@@]56CCCN5C[C@H](F)C6)nc4c3F)c12 [Example 785, 5-ethyl-6-fluoro-4-(8-fluoro-2-(((2R,7aS)-2-fluorohexahydro-1H-pyrrolizin-7a-yl)methoxy)-4-(3-(hydroxymethyl)pyrrolo[3,4-c]pyrazol-5 (2H,4H,6H)-yl)pyrido[4,3-d]pyrimidin-7-yl)naphthalen-2-ol]
- inhibition at 0.1 µM [2]: 2%
- IC50 [2]: > 10000 nM
- IC50 [3]: 435 nM
- inhibition at 0.1 µM [8]: 8%
- inhibition at 0.1 µM [5]: -6%
- IC50 [6]: 787 nM
- inhibition at 0.1 µM [9]: 9%
- IC50 [7]: 1300 nM
- inhibition at 0.1 µM [10]: 5%
- inhibition at 0.1 µM [11]: 0%

SMILES: Cc1c(O)cc2ccccc2c1-c1ncc2c(N3C[C@@H]4C[C@H](C3)[C@H](O)C4)nc(OC[C@@]34CCCN3C[C@H](F)C4)nc2c1F [Example 786, (1R,5R,6R)-3-(8-fluoro-2-(((2R,7aS)-2-fluorohexahydro-1H-pyrrolizin-7a-yl)methoxy)-7-(3-hydroxy-2-methylnaphthalen-1-yl)pyrido[4,3-d]pyrimidin-4-yl)-3-azabicyclo[3.2.1]octan-6-ol]
- inhibition at 0.1 µM [2]: 15%
- IC50 [2]: 2820 nM
- IC50 [3]: 110 nM
- inhibition at 0.1 µM [8]: 19%
- inhibition at 0.1 µM [5]: 1%
- IC50 [5]: 4960 nM
- IC50 [6]: 160 nM
- inhibition at 0.1 µM [9]: -3%
- IC50 [7]: 423 nM
- inhibition at 0.1 µM [10]: 0%
- inhibition at 0.1 µM [11]: 8%

SMILES: CCc1c(F)ccc2cc(O)cc(-c3ncc4c(N5CCC[C@@](C)(O)C5)nc(OC[C@]56CCCN5[C@@H](CNS(=O)(=O)N(C)C)CC6)nc4c3F)c12 [Example 787, (R)-1-(7-(8-ethyl-7-fluoro-3-hydroxynaphthalen-1-yl)-8-fluoro-2-(((3R,7aR)-3-(((dimethylsulfamoyl)amino)methyl)tetrahydro-1H-pyrrolizin-7a(5H)-yl)methoxy)pyrido[4,3-d]pyrimidin-4-yl)-3-methylpiperidin-3-ol]
- inhibition at 0.1 µM [2]: 33%
- IC50 [2]: 2080 nM
- IC50 [3]: 3 nM
- inhibition at 0.1 µM [8]: 14%
- inhibition at 0.1 µM [5]: 23%
- IC50 [5]: 1670 nM
- IC50 [6]: 6 nM
- inhibition at 0.1 µM [9]: 8%
- IC50 [7]: 4 nM
- inhibition at 0.1 µM [10]: 9%
- inhibition at 0.1 µM [11]: 11%

SMILES: CCc1c(F)ccc2cc(O)cc(-c3ncc4c(N5CCCC6(CC6C#N)C5)nc(OC[C@@]56CCCN5C[C@H](F)C6)nc4c3F)c12 (stereo partly drawn) [Example 851, 5-(7-(8-ethyl-7-fluoro-3-hydroxynaphthalen-1-yl)-8-fluoro-2-(((2R,7aS)-2-fluorotetrahydro-1H-pyrrolizin-7a(5H)-yl)methoxy)pyrido[4,3-d]pyrimidin-4-yl)-5-azaspiro[2.5]octane-1-carbonitrile]
- IC50 [2]: 932 nM
- IC50 [3]: 12 nM
- IC50 [8]: 397 nM
- IC50 [5]: 1210 nM
- IC50 [6]: 9 nM
- IC50 [9]: 264 nM
- IC50 [7]: 36 nM
- IC50 [10]: 475 nM
- IC50 [11]: 159 nM

SMILES: CCc1c(F)ccc2cc(O)cc(-c3ncc4c(N5CC6CNC(CO)C6C5)nc(OC[C@@]56CCCN5C[C@H](F)C6)nc4c3F)c12 (stereo partly drawn) [Example 875, 5-ethyl-6-fluoro-4-(8-fluoro-2-(((2R,7aS)-2-fluorotetrahydro-1H-pyrrolizin-7a(5H)-yl)methoxy)-4-(4-(hydroxymethyl)hexahydropyrrolo[3,4-c]pyrrol-2 (1H)-yl)pyrido[4,3-d]pyrimidin-7-yl)naphthalen-2-ol]
- IC50 [2]: > 10000 nM
- IC50 [3]: 34 nM
- IC50 [8]: > 10000 nM
- IC50 [5]: > 10000 nM
- IC50 [6]: 37 nM
- IC50 [9]: > 10000 nM
- IC50 [7]: 17 nM
- IC50 [10]: > 10000 nM
- IC50 [11]: > 10000 nM

SMILES: CCOC(=O)C12CCC(CN(c3nc(OC[C@@]45CCCN4C[C@H](F)C5)nc4c(F)c(-c5cc(O)cc6ccc(F)c(CC)c56)ncc34)C1)C2(F)F (stereo partly drawn) [Example 899, ethyl 3-(7-(8-ethyl-7-fluoro-3-hydroxynaphthalen-1-yl)-8-fluoro-2-(((2R,7aS)-2-fluorotetrahydro-1H-pyrrolizin-7a(5H)-yl)methoxy)pyrido[4,3-d]pyrimidin-4-yl)-8,8-difluoro-3-azabicyclo[3.2.1]octane-1-carboxylate]
- IC50 [2]: 4410 nM
- IC50 [3]: 240 nM
- IC50 [8]: 3530 nM
- IC50 [5]: 5370 nM
- IC50 [6]: 66 nM
- IC50 [9]: 1410 nM
- IC50 [7]: 692 nM
- IC50 [10]: 6690 nM
- IC50 [11]: 1290 nM

SMILES: CCc1c(F)ccc2cc(O)cc(-c3ncc4c(N5CC6CCC(CC(N)=O)(C6)C5)nc(OC[C@@]56CCCN5C[C@H](F)C6)nc4c3F)c12 (stereo partly drawn) [Example 908, 2-(3-(7-(8-ethyl-7-fluoro-3-hydroxynaphthalen-1-yl)-8-fluoro-2-(((2R,7aS)-2-fluorotetrahydro-1H-pyrrolizin-7a(5H)-yl)methoxy)pyrido[4,3-d]pyrimidin-4-yl)-3-azabicyclo[3.2.1]octan-1-yl)acetamide]
- IC50 [2]: 2310 nM
- IC50 [3]: 6 nM
- IC50 [8]: 1630 nM
- IC50 [5]: 5800 nM
- IC50 [6]: 8 nM
- IC50 [9]: 707 nM
- IC50 [7]: 14 nM
- IC50 [10]: 1730 nM
- IC50 [11]: 630 nM

SMILES: C[C@@]1(O)CCCN(c2nc(OC[C@@]34CCCN3C[C@H](F)C4)nc3c(F)c(-c4cc(O)cc5ccccc45)ncc23)C1 [Example 917, (R)-1-(8-fluoro-2-(((2R,7aS)-2-fluorotetrahydro-1H-pyrrolizin-7a(5H)-yl)methoxy)-7-(3-hydroxynaphthalen-1-yl)pyrido[4,3-d]pyrimidin-4-yl)-3-methylpiperidin-3-ol]
- IC50 [2]: 223 nM
- IC50 [3]: 7 nM
- IC50 [8]: 233 nM
- IC50 [5]: 149 nM
- IC50 [6]: 12 nM
- IC50 [9]: 54 nM
- IC50 [7]: 4 nM
- IC50 [10]: 151 nM
- IC50 [11]: 198 nM
